Columns and labels:
Type in all cases: in vivo
Galium aparine = assay: Field trial with cereal (wheat), herbicidal action; conditions: application at 4-leaf stage, scoring 28 days after application
Description: (§1) Transgenic cereal plants with a resistance to one or more herbicides (A) together with typical weed plants were grown in the open on 2×5 m plots under natural field conditions; alternatively, weed infestation occurred naturally when the cereal plants were grown.
(§2) 2, 4, 6 and 8 weeks after the application, the herbicidal activity of the active substances or active substance mixtures was scored visually with reference to the treated plots in comparison to untreated control plots. The damage to, and the development of, all aerial parts of the plants was recorded. Scoring was done on the basis of a percentage sale (100% action=all plants destroyed; 50% action=50% of the plants and green parts of the plants destroyed; 0% action=no recognizable effect=like control plot. The mean of the score values of in each case 4 plots was calculated.

Lamium purpureum = assay: Field trial with cereal (wheat), herbicidal action; conditions: application at 4-leaf stage, scoring 28 days after application
Description: as §1, §2

Lolium multiflorum = assay: Field trial with cereal (wheat), herbicidal action; conditions: for Herbicidal action (%) against Lolium multiflorum: scoring 27 days after application
Description: as §1
(§3) […] The damage to, and the development of, all aerial parts of the plants was recorded. Scoring was done on the basis of a percentage sale (100% action=all plants destroyed; 50% action=50% of the plants and green parts of the plants destroyed; 0% action=no recognizable effect=like control plot. The mean of the score values of in each case 4 plots was calculated.

Alopecurus myosuroides = assay: Field trial with cereals (wheat), herbicidal action; conditions: application at start of stocking, scoring 3 weeks after application
Description: as §1, §3

Digitaria Sanguinalis = assay: as above; conditions: application at start of stocking, scoring 3 weeks after application
Description: as §1, §3

Ambrosia maritima = assay: Field trial with cereal (wheat), herbicidal action; conditions: application at start of stocking, scoring 11 days after application
Description: as §1, §3

[1] = Lolium multiflorum, read-out: Herbicidal action (%) against Lolium multiflorum

**Q.** For `COc1cc(OC)nc(NC(=O)NS(=O)(=O)N(C)S(C)(=O)=O)n1` [(B4.1.2), amidosulfuron], which “Herbicidal action (%) against Galium aparine” value (Galium aparine; 20 g of a.s./ha) is on record?
**A.** 75%

**Q.** Which “Herbicidal action (%) against Lamium purpureum” value (Lamium purpureum; 960 g of a.s./ha) does the source give for `CCC(CC)Nc1c([N+](=O)[O-])cc(C)c(C)c1[N+](=O)[O-]` [(B1.1.5), pendimethalin] here?
**A.** 75%

**Q.** For `CC(C)N(C(=O)COc1nnc(C(F)(F)F)s1)c1ccc(F)cc1` [(B1.1.3), fluthiamide], which pest or weed control at 180 g/ha (Lolium multiflorum; Lolium multiflorum, wheat field trial, 180 g of a.s./ha, application at 3-leaf stage, scoring after application, read-out: Herbicidal action (%) against Lolium multiflorum) is on record?
**A.** 25%

**Q.** With `COc1cc(OC)nc(NC(=O)NS(=O)(=O)c2nc(C(F)(F)F)ccc2C(=O)O)n1` [(B1.2.6), flupyrsulfuron] as the compound, how does the pest or weed control at 7.5 g/ha (Lolium multiflorum; [1]) read?
**A.** 25%

**Q.** Which results are given for `CCOC(=O)C(Cl)Cc1cc(-n2nc(C)n(C(F)F)c2=O)c(F)cc1Cl` (centres unmarked) [(B4.4.1), carfentrazone-ethyl]?
**A.** Herbicidal action (%) against Galium aparine (Galium aparine; 10 g of a.s./ha): 45%; Herbicidal action (%) against Galium aparine (Galium aparine; 20 g of a.s./ha): 55%

**Q.** For `CCOC(=O)/C(Cl)=C/c1cc(N2C(=O)C3=C(CCCC3)C2=O)ccc1Cl` [(B4.1.6), cinidon-ethyl], which “Herbicidal action (%) against Galium aparine” value (Galium aparine; 35 g of a.s./ha) is on record?
**A.** 65%

**Q.** How did the pest or weed control at 50 g/ha (Lolium multiflorum; Lolium multiflorum, wheat field trial, 50 g of a.s./ha, application at 3-leaf stage, scoring after application, read-out: Herbicidal action (%) against Lolium multiflorum) turn out when `C#CCOC(=O)[C@@H](C)Oc1ccc(Oc2ncc(Cl)cc2F)cc1` [(B1.2.2), clodinafop-propargyl] was run?
**A.** 73%

**Q.** How did the “Herbicidal action (%) against Galium aparine” value (Galium aparine; 750 g of a.s./ha) turn out when `Cc1cc(Cl)ccc1O[C@@H](C)C(=O)O` [(B4.2.2), CMPP-P] was run?
**A.** 73%

**Q.** `Nc1c(Cl)c(F)nc(OCC(=O)O)c1Cl` [(B4.2.5), fluroxypyr] was tested. Which “Herbicidal action (%) against Galium aparine” value (Galium aparine; 120 g of a.s./ha) did it give?
**A.** 75%

**Q.** Which results are given for `COC(=O)C(C)Oc1ccc(Oc2ccc(Cl)cc2Cl)cc1` (centres unmarked) [(B1.2.3), diclofop-methyl]?
**A.** Herbicidal action (%) against Lolium multiflorum (Lolium multiflorum; wheat field trial, 500 g of a.s./ha, application at 3-leaf stage): 60%; Herbicidal action (%) against Lolium multiflorum (Lolium multiflorum; wheat field trial, 750 g of a.s./ha, application at 3-leaf stage): 83%

**Q.** Which “Herbicidal action (%) against Lamium purpureum” value (Lamium purpureum; 15 g of a.s./ha) does the source give for `COC(=O)c1ccccc1S(=O)(=O)NC(=O)N(C)c1nc(C)nc(OC)n1` [(B4.1.1), tribenuron-methyl] here?
**A.** 68%

**Q.** With `N#Cc1cc(Br)c(O)c(Br)c1` [(B4.3.1), bromoxynil] as the compound, how does the “Herbicidal action (%) against Lamium purpureum” value (Lamium purpureum; 180 g of a.s./ha) read?
**A.** 55%

**Q.** What about the “Herbicidal action (%) against Lamium purpureum” value (Lamium purpureum; 360 g of a.s./ha) of the same compound?
**A.** 83%

**Q.** For `O=C(Nc1ccc(F)cc1F)c1cccnc1Oc1cccc(C(F)(F)F)c1` [Diflu, diflufenican], which pest or weed control at 150 g/ha (Lolium multiflorum; Lolium multiflorum, wheat field trial, 150 g of a.s./ha, application at 3-leaf stage, scoring after application, read-out: Herbicidal action (%) against Lolium multiflorum) is on record?
**A.** 35%

**Q.** How did the pest or weed control at 5 g/ha (Lolium multiflorum; Lolium multiflorum, wheat field trial, 5 g of a.s./ha, application at 3-leaf stage, scoring after application, read-out: Herbicidal action (%) against Lolium multiflorum) turn out when `COC(=O)c1ccc(NS(C)(=O)=O)cc1S(=O)(=O)NC(=O)Nc1nc(OC)cc(OC)n1` [(B2.3), methyl 4-methylsulfonylamino-2-(4,6-dimethoxypyrimidin-2-ylcarbamoylsulfamoyl)benzoate] was run?
**A.** 65%

**Q.** For `CC(C)c1ccc(NC(=O)N(C)C)cc1` [(B1.1.1), isoproturon], which pest or weed control at 1500 g/ha (Lolium multiflorum; Lolium multiflorum, wheat field trial, 1500 g of a.s./ha, application at 3-leaf stage, scoring after application, read-out: Herbicidal action (%) against Lolium multiflorum) is on record?
**A.** 55%

**Q.** With `CCc1cnc(C2=NC(C)(C(C)C)C(=O)N2)c(C(=O)O)c1` (centres unmarked) [(A3.2), imazethapyr] as the compound, how does the pest or weed control at 70 g/ha (Lolium multiflorum; Lolium multiflorum, wheat field trial, 70 g of a.s./ha, application at 3-leaf stage, scoring after application, read-out: Herbicidal action (%) against Lolium multiflorum) read?
**A.** 0%

**Q.** Which “Herbicidal action (%) against Alopecurus myosuroides” value (Alopecurus myosuroides; 10 g of a.s./ha) does the source give for `CCOC(=O)COc1cc(-c2nn(C)c(OC(F)F)c2Cl)c(F)cc1Cl` [(B4.4.2), pyraflufen-ethyl] here?
**A.** 0%

**Q.** And the “Herbicidal action (%) against Digitaria Sanguinalis” value (Digitaria Sanguinalis; 10 g of a.s./ha)?
**A.** 0%

**Q.** For `Cc1cc(Cl)ccc1OCC(=O)O` [(B4.2.4), MCPA], which “Herbicidal action (%) against Ambrosia maritima” value (Ambrosia maritima; 500 g of a.s./ha) is on record?
**A.** 0%

**Q.** For `CP(=O)(O)CCC(N)C(=O)O` (centres unmarked) [(A1.2), glufosinate-ammonium], which “Herbicidal action (%) against Alopecurus myosuroides” value (Alopecurus myosuroides; 200 g of a.s./ha) is on record?
**A.** 55%

**Q.** What about the “Herbicidal action (%) against Alopecurus myosuroides” value (Alopecurus myosuroides; 400 g of a.s./ha) of the same compound?
**A.** 83%

**Q.** And the “Herbicidal action (%) against Alopecurus myosuroides” value (Alopecurus myosuroides; 600 g of a.s./ha)?
**A.** 93%

**Q.** And the “Herbicidal action (%) against Digitaria Sanguinalis” value (Digitaria Sanguinalis; 200 g of a.s./ha)?
**A.** 45%

**Q.** What about the “Herbicidal action (%) against Digitaria Sanguinalis” value (Digitaria Sanguinalis; 400 g of a.s./ha) of the same compound?
**A.** 90%

**Q.** And the “Herbicidal action (%) against Digitaria Sanguinalis” value (Digitaria Sanguinalis; 600 g of a.s./ha)?
**A.** 99%

**Q.** What about the “Herbicidal action (%) against Ambrosia maritima” value (Ambrosia maritima; 200 g of a.s./ha) of the same compound?
**A.** 58%

**Q.** And the “Herbicidal action (%) against Ambrosia maritima” value (Ambrosia maritima; 400 g of a.s./ha)?
**A.** 100%

**Q.** What about the “Herbicidal action (%) against Ambrosia maritima” value (Ambrosia maritima; 600 g of a.s./ha) of the same compound?
**A.** 100%

**Q.** What about the pest or weed control at 200 g/ha (Lolium multiflorum; [1]) of the same compound?
**A.** 0%

**Q.** What about the pest or weed control at 330 g/ha (Lolium multiflorum; [1]) of the same compound?
**A.** 15%

**Q.** What about the pest or weed control at 500 g/ha (Lolium multiflorum; [1]) of the same compound?
**A.** 78%

**Q.** What about the “Herbicidal action (%) against Galium aparine” value (Galium aparine; 100 g of a.s./ha) of the same compound?
**A.** 0%

**Q.** And the “Herbicidal action (%) against Galium aparine” value (Galium aparine; 200 g of a.s./ha)?
**A.** 0%

**Q.** And the “Herbicidal action (%) against Galium aparine” value (Galium aparine; 300 g of a.s./ha)?
**A.** 0%

**Q.** And the “Herbicidal action (%) against Lamium purpureum” value (Lamium purpureum; 200 g of a.s./ha)?
**A.** 8%

**Q.** And the “Herbicidal action (%) against Lamium purpureum” value (Lamium purpureum; 330 g of a.s./ha)?
**A.** 35%

**Q.** With `COC(=O)c1ccccc1S(=O)(=O)NC(=O)Nc1nc(C)nc(OC)n1` [(B2.1), metsulfuron-methyl] as the compound, how does the “Herbicidal action (%) against Lamium purpureum” value (Lamium purpureum; 3 g of a.s./ha) read?
**A.** 75%

**Q.** With `CCS(=O)(=O)c1nc2ccccn2c1S(=O)(=O)NC(=O)Nc1nc(OC)cc(OC)n1` [(B2.6), sulfosulfuron] as the compound, how does the pest or weed control at 20 g/ha (Lolium multiflorum; Lolium multiflorum, wheat field trial, 20 g of a.s./ha, application at 3-leaf stage, scoring after application, read-out: Herbicidal action (%) against Lolium multiflorum) read?
**A.** 35%

— patent US20030022792A1, “HERBICIDAL COMPOSITIONS FOR TOLERANT OR RESISTANT CEREAL CROPS” (priority 1998, published 2003)
